Legend:
[1] = test system: cancer cell lines from lung, breast, colon and prostate tissues; assay: Toxicity to multiple cancer cell lines; format: cell-based; details: most active when serum is absent
A549 cells = assay: Viability of A549 cells; format: cell-based, human
Method: (A) Pgrmc1 (SEQ ID NO: 7) shares homology with AtMAPR2 (SEQ ID NO: 8) (underlined residues), which was the target for a screen for small molecule ligands. The putative heme-binding Tyr106 and Tyr112 are indicated with black boxes. (B) The molecular structure of AG-205 includes multiple aromatic components. (C) Spectroscopic scan of Pgrmc1 with vehicle control compared with vehicle plus 50 µM AG-205. The decrease in relative absorbance at 400 nm is consistent with an AG-205-induced change in the spectral properties of Pgrmc1-heme. The scan is representative of four separate scans using different Pgrmc1 protein preparations. The lower scan is a comparison of purified Pgrmc1 without and with the vehicle control (DMSO). Panels D (A549 cells) and E (MDA-MB-231 cells) are viability assays of cells maintained in 0.1% serum (solid line) or 10% serum (dashed line) and treated with increasing doses of AG-205. Percent viability was determined by cell counting, and “% viability” refers to the cell number relative to the untreated control.
(§1) Tissue culture. MDA-MB-468 cells were a kind gift from Dr. Rina Plattner of the University of Kentucky and were maintained in medium consisting of Dulbecco's Modified Eagle Medium containing 10% serum supreme (Fisher) and antibiotics. Cells were grown at 37° C. in 5% CO2 in air. A549 and HCC827 lung cancer cells, as well as SK-Br-3 breast cancer cells were obtained from the ATCC (American Type Culture Collection) and were grown under the same conditions. The H1650 lung cancer cell line was a kind gift from Dr. Heinz Kohler of the University of Kentucky. The Pgrmc1 ligand AG-205 was purchased from Timtec, Inc. The EGFR inhibitor AG1478 was from Biomol, Inc. and was used at a concentration range of 0.8-40 μM.
(§2) Proliferation, anchorage-independent growth and migration assays. For growth curves, cells were plated in 24 well dishes and grown in 10% serum-containing medium. At various times, the cells were harvested with trypsin and fixed with formaldehyde added to a final concentration of 3.7%. Following the harvest of the final time point, the cells from each time point were counted using a Bright-line hemocytometer (Hausser Scientific).
(§3) MTT viability assays were performed as described previously. Briefly, cells were plated in 96-well tissue culture dishes and grown in various media with different drug doses. The cells were then incubated with 0.5 mg/ml of 3-[4,5-dimethylthiazol-2-y]-2,5-diphenyltetrazolium bromide for 1.5 hours, at which time the media was removed, the precipitated crystals were dissolved in dimethyl sulfoxide, and the absorbance at 590 nm was measured using a Bio-Tek μQuant spectrophotometer.

H1650 = assay: AG-205 viability assay in H1650 cells; format: cell-based
Method: as §1
as §2, with “At various times, the cells were harvested with trypsin and fixed with formaldehyde added to a final concentration of 3.7%.” left out
as §3, with “Briefly, cells were plated in 96-well tissue culture dishes and grown in various media with different drug doses.” left out

MDA-MB-468 cells = assay: Viability / proliferation of MDA-MB-468 cells; format: cell-based, human
Method: as §1, §2, §3

HCC827 = assay: AG-205 viability assay in HCC827 cells; format: cell-based
Method: as §1
as §2, with “At various times, the cells were harvested with trypsin and fixed with formaldehyde added to a final concentration of 3.7%.” left out
as §3, with “Briefly, cells were plated in 96-well tissue culture dishes and grown in various media with different drug doses.” left out

H358 = assay: AG-205 viability assay in H358 cells; format: cell-based; details: H358, lung, serum-starved, EGFR wild-type
Method: as §2, §3

ku70 = assay: Western blot of ku70 in A549 cells; format: cell-based, human
Method: Panel A is a diagram indicating the positions of the siRNA molecules targeting Pgrmc1. Exons 1, 2 and 3 are indicated by “ex”. MDA-MB-468 cells were transfected with a control siRNA (siCON, lanes 1 and 3) or two separate siRNAs targeting Pgrmc1 (siPGR and siPGR2, lanes 2 and 4, respectively). In panels B-E and H-L, protein levels were analyzed by western blot for EGFR (B), phospho-tyrosine (C), Pgrmc1 (D) and ku70 (E), as a control for protein loading. Panels F—H show western blot analyses for (F) IGF-1R, (G) c-Kit and (H) tfR. In panels I and J, transcript levels were analyzed by reverse transcriptase-PCR for EGFR (I) and Pgrmc1 (J). The top band indicates the gene of interest, while actin primers were included in the same reaction as a control for cDNA loading. […] In panels K-L, MDA-MB-468 cells were treated with increasing doses of the Pgrmc1 ligand AG-205. Protein expression was analyzed by western blot for EGFR (K) and ku70 (L). Cells were treated with 0 (lanes 1), 2 (lanes 2), 10 (lanes 3) or 50 (lanes 4) μM AG-205 for 24 hours in serum-free medium. In panels M-N, A549 cells were treated with the same doses and analyzed for EGFR (M) and ku70 (N). […] Expression analyses were repeated at least in duplicate throughout.
Immunological techniques. […]

Cc1ccc2c(c1)[C@H]1CN(C)CC[C@H]1N2C(=O)CSc1nnnn1-c1ccc(Cl)cc1 [AG-205]
toxicity to cancer cell lines [1]: toxic to multiple cancer cell lines
IC50 (A549 cells; A549, lung, serum-starved, EGFR wild-type, read-out: IC50 values for AG-205, Serum-starved): 15 µM
cell viability (A549 cells; A549 cells, 20 μM dose, 72-96 hours after treatment): marked loss of viability
decrease in viability / cells killed (A549 cells; A549 cells, single agent): 47%
cell growth inhibition (A549 cells; A549 cells, wild-type EGFR): efficiently inhibited cell growth
toxicity in Pgrmc1-inhibited A549 cells (A549 cells; Pgrmc1-inhibited versus control A549 cells, after 36 hours, P=0.0001): decreased toxicity
viability of Pgrmc1-hbd-expressing cells (A549 cells; cells expressing heme binding-deficient mutant, increasing doses of AG-205, cell counting): partially reversed the loss of viability
IC50 (H1650; H1650, lung, serum-starved, EGFR ΔE746-A750): > 100 µM
sensitivity to growth inhibition (H1650; H1650 cells, ΔE746-A750 EGFR): relatively insensitive
IC50 (MDA-MB-468 cells; MDA-MB-468, breast, serum-starved, EGFR wild-type, read-out: IC50 values for AG-205, Serum-starved): 12 µM
cell viability (MDA-MB-468 cells; MDA-MB-468 cells, 20 μM dose, 72-96 hours after treatment): marked loss of viability
viability under normal culture conditions (MDA-MB-468 cells; MDA-MB-468 cells, ligand abundant (10% serum)): slight increase in viability
cell growth inhibition (MDA-MB-468 cells; MDA-MB-468 cells, wild-type EGFR): efficiently inhibited cell growth
growth inhibitory activity depending on culture conditions (MDA-MB-468 cells; low serum versus 10% serum, P=0.0006 for MDA-MB-468 at 20 μM): killing cells grown in low serum conditions but not 10% serum
IC50 (HCC827; HCC827, lung, serum-starved, EGFR ΔE746-A750): > 100 µM
sensitivity to growth inhibition (HCC827; HCC827 cells, ΔE746-A750 EGFR): relatively insensitive
IC50 (H358): 12 µM
ku70 levels (ku70): unaffected

— patent US9724337B2, “AG-205 for the treatment of breast cancer” (University of Kentucky Research Foundation, priority 2009, dated 2017)
